Test results from patent publication EP2923697B1, “Extract and novel isolated compound from Aspergillus terreus for treatment of mouth microbial infections” (King Saud University, priority 2014, dated 2015).
≈ marks a conversion by molar mass, not a printed value. Where “and” joins values, the source holds several entries; their conditions need not be identical. Equal entries are not always repeated.

Experiments:
[1] = system: Lactobacillus acidophilus; experiment: Antimicrobial activity, well diffusion method; type: cell-based; conditions: 5mg/ml of sample around well (6 mm), mean ± Standard deviation
Text: (§1) Mouth microbial representatives including unicellular fungi; Candida albicans (RCMB 05382), Candida glabrata (RCMBA 05386), Candida parapsilosis (RCMBA 06002), Candida tropicalis (RCMB 05384), Gram-positive bacteria; Lactobacillus acidophilus (RCMBA 4267), Streptococcus gordonii (RCMBA 2004), Streptococcus mutans (RCMBA 4131), and Gram-negative bacteria; Pseudomonas aeruginosa (RCMBA 1002) were obtained from the Regional Center for Mycology and Biotechnology (RCMB), Al-Azhar University, Cairo, Egypt, as test organisms. Antimicrobial activity was determined by the well diffusion method. Petri plates contained 20 ml of Nutrient (for bacteria) or Malt extract (for fungi). Agar medium were seeded with 1-3 day cultures of microbial inoculums (1-2 X 10^7 CFU/ml). […] The assessment of antimicrobial activity was based on measurement of the diameter of the inhibition zone formed around the well.

Pseudomonas aeruginosa [2] = experiment: Antimicrobial activity, well diffusion method; type: cell-based; conditions: 5mg/ml of sample around well (6 mm), mean ± Standard deviation
Text: as §1

Streptococcus gordonii [3] = experiment: Antimicrobial activity, well diffusion method; type: cell-based; conditions: 5mg/ml of sample around well (6 mm), mean ± Standard deviation
Text: as §1

Streptococcus mutans [4] = experiment: Antimicrobial activity, well diffusion method; type: cell-based; conditions: 5mg/ml of sample around well (6 mm), mean ± Standard deviation
Text: as §1

[5] = system: Lactobacillus acidophilus; experiment: MIC determination, micro-dilution method; type: cell-based; conditions: for MIC: read-out: Minimum Inhibitory Concentration
Text: (§2) Mouth microbial representatives including unicellular fungi; Candida albicans (RCMB 05382), Candida glabrata (RCMBA 05386), Candida parapsilosis (RCMBA 06002), Candida tropicalis (RCMB 05384), Gram-positive bacteria; Lactobacillus acidophilus (RCMBA 4267), Streptococcus gordonii (RCMBA 2004), Streptococcus mutans (RCMBA 4131), and Gram-negative bacteria; Pseudomonas aeruginosa (RCMBA 1002) were obtained from the Regional Center for Mycology and Biotechnology (RCMB), Al-Azhar University, Cairo, Egypt, as test organisms.
(§3) The minimum inhibitory concentration (MIC) was determined by micro-dilution method using serially diluted (2 folds) extract and isolated compound. MIC of the extract was determined by dilution of extract and isolated compound of concentrations of 0.0-1000 µg/ml. Equal volume of each extract and nutrient broth were mixed in a test tube. Specifically 0.1 ml of standardized inoculum (1-2 X 10^7 CFU/ml) was added in each tube. The tubes were incubated at 37°C for 24-48 h. Two control tubes containing the growth medium, saline and the inoculum were maintained for each test batch. The lowest concentration (highest dilution) of the extract that produced no visible microbial growth (no turbidity) when compared with the control tubes were regarded as MIC.

Pseudomonas aeruginosa [6] = experiment: MIC determination, micro-dilution method; type: cell-based; conditions: read-out: Minimum Inhibitory Concentration
Text: as §2, §3

Streptococcus gordonii [7] = experiment: MIC determination, micro-dilution method; type: cell-based; conditions: read-out: Minimum Inhibitory Concentration
Text: as §2, §3

Streptococcus mutans [8] = experiment: MIC determination, micro-dilution method; type: cell-based; conditions: read-out: Minimum Inhibitory Concentration
Text: as §2, §3

[9] = system: Lactobacillus acidophilus; experiment: In-vitro activity in combination with Coe-Comfort tissue conditioner, CFU count; type: cell-based; conditions: for concentration giving total growth inhibition: in combination with Coe-comfort tissue conditioner; for No. colony-forming units (CFU): mixed with Coe-Comfort
Streptococcus gordonii [10] = experiment: In-vitro activity in combination with Coe-Comfort tissue conditioner; type: cell-based
S. mutans = experiment: as above; type: cell-based, Streptococcus mutans
Candida albicans [11] = experiment: Antimicrobial activity, well diffusion method; type: cell-based; conditions: 5mg/ml of sample around well (6 mm), mean ± Standard deviation
Text: as §1

Candida glabrata [12] = experiment: Antimicrobial activity, well diffusion method; type: cell-based; conditions: 5mg/ml of sample around well (6 mm), mean ± Standard deviation
Text: as §1

Candida parapsilosis [13] = experiment: Antimicrobial activity, well diffusion method; type: cell-based; conditions: 5mg/ml of sample around well (6 mm), mean ± Standard deviation
Text: as §1

Candida tropicalis [14] = experiment: Antimicrobial activity, well diffusion method; type: cell-based; conditions: 5mg/ml of sample around well (6 mm), mean ± Standard deviation
Text: as §1

Candida albicans [15] = experiment: MIC determination, micro-dilution method; type: cell-based; conditions: read-out: Minimum Inhibitory Concentration
Text: as §2, §3

Candida glabrata [16] = experiment: MIC determination, micro-dilution method; type: cell-based; conditions: Candida glabrata
Text: as §2, §3

Candida parapsilosis [17] = experiment: MIC determination, micro-dilution method; type: cell-based; conditions: Lodderomyces parapsilosis, read-out: Minimum Inhibitory Concentration
Text: as §2, §3

Candida tropicalis [18] = experiment: MIC determination, micro-dilution method; type: cell-based
Text: as §2, §3

Candida albicans [19] = experiment: In-vitro activity in combination with Coe-Comfort tissue conditioner, CFU count; type: cell-based; conditions: for No. colony-forming units (CPU): Candida albicans, mixed with Coe-Comfort
Procedure: The Coe-Comfort tissue conditioner was mixed according to the proportions indicated by the manufacturers. In detail, Coe-comfort™ tissue conditioner is formed by dispensing 5 ml of Coe-comfort liquid into a disposable mixing cup. The red measure level is filled with about 6 g of Coe-comfort powder and is then slowly added to the liquid. The obtained mixture is blended for 30 seconds and setted aside for approximately one minute until it flows sluggishly from a spatula. Using less liquid gives a thicker, faster setting mix and vice versa. […] The extract and isolated compound/conditioner mixture was homogenized in a sterile glass beaker for 30 seconds. Immediately afterwards, the conditioning powder was added and mixed for 40 seconds and then poured onto a Petri plate. Once the mixture solidified, the surface was covered with 4 ml of Sabouraud agar, and after 30 minutes, inoculated with 20 µl of an appropriate dilution of Candida. The plates were incubated at 37°C for 24 hours and then the CFUs were counted. The experiment was performed in triplicate. For the conditioner Coe-Comfort, the control was unmodified conditioner.

[20] = Sub-chronic toxicity, liver and kidney function; type: in vivo, Male Wister rats; conditions: rats; oral daily for 15 days; extract 500 mg/kg, isolated compound 50 mg/kg; serum 6 hr after the last dose
Procedure: Male Wister rats (150-180 g) were divided into 3 equal groups each of 10 rats. Rats of the 1st group received the vehicle in a dose of 5 mL/kg and left as normal control. Rats of the 2nd and 3rd groups were administered the ethanolic extract of the investigated fungi (500 mg/kg) and the isolated compound (50 mg/kg). All medications were administered orally daily for 15 consecutive days. Animals were maintained under identical conditions with food and water ad libitum for the entire period with close observation. At the end of the experimental period, blood samples were collected from the orbital plexus of rats, 6 hr after the last dose. Samples were left to clot at room temperature for 20 min. The obtained sera were collected and used to determine the activity of AST and ALT. Levels of urea and creatinine were also estimated.

With `[H]/N=C(\N/C(=N/[H])NCCCCCCNC(=N)NC(=N)Nc1ccc(Cl)cc1)Nc1ccc(Cl)cc1` [Chlorhexidine, reference compound] the “Diameter of inhibition zone” value [1] was 26.2± 0.42 mm, the “Diameter of inhibition zone” value (Pseudomonas aeruginosa [2]) was 20.1 ± 0.19 mm and the “Diameter of inhibition zone” value (Streptococcus gordonii [3]) was 22.1± 0.51 mm. The “Diameter of inhibition zone” value (Streptococcus mutans [4]) was 23.5 ± 0.34 mm, the MIC [5] was 0.06 µg/mL (≈ 0.119 µM) and the MIC (Pseudomonas aeruginosa [6]) was 3.9 µg/mL (≈ 7.72 µM). The MIC (Streptococcus gordonii [7]) was 0.98 µg/mL (≈ 1.94 µM), the MIC (Streptococcus mutans [8]) was 0.49 µg/mL (≈ 0.969 µM) and the “concentration giving total growth inhibition” value [9] was 15.63 µg/mL. For the same compound, the “No. colony-forming units (CFU)” value ([9]; concentration 000.24 µg/ml) was 6.4 x 10^5, the “No. colony-forming units (CFU)” value ([9]; concentration 000.49 µg/ml) was 2.3 x 10^5 and the “No. colony-forming units (CFU)” value ([9]; concentration 000.98 µg/ml) was 3.1 x 10^4. The “No. colony-forming units (CFU)” value ([9]; concentration 001.95 µg/ml) was 5.4 x 10^3, the “No. colony-forming units (CFU)” value ([9]; concentration 003.90 µg/ml) was 1.9 x 10^3 and the “No. colony-forming units (CFU)” value ([9]; concentration 007.81 µg/ml) was 7.9 x 10^2. The “No. colony-forming units (CFU)” value ([9]; concentration 015.63 µg/ml) was 00.00, the “No. colony-forming units (CFU)” value ([9]; concentration 031.25 µg/ml) was 00.00 and the “No. colony-forming units (CFU)” value ([9]; concentration 062.50 µg/ml) was 00.00. The “concentration giving total growth inhibition” value (Streptococcus gordonii [10]) was 3.9 µg/mL and the “concentration giving total growth inhibition” value (S. mutans) was 15.63 µg/mL.
In the case of `C/C=C(/C)C1CCC2C(C1)CC(C)C1C2C=C(C)C2C3CC(C=C(C)C)CC3C(O)CC21` (stereo not shown) [Isolated compound, 9-((Z)-but-2-en-2-yl)-2,3,3a,4,5,5a;5b,6,7,7a,8,9,10,11,11a,11b,13a,13b-octadecahydro-6,13-dimethyl-2-(2-methylprop-1-enyl)-1H-cyclopenta[a]chrysen-4-ol], the “Diameter of inhibition zone” value (Candida albicans [11]) was 19.3 ± 0.63 mm, the “Diameter of inhibition zone” value (Candida glabrata [12]) was 00.0 mm and the “Diameter of inhibition zone” value (Candida parapsilosis [13]) was 21.3 ± 0.58 mm. The “Diameter of inhibition zone” value (Candida tropicalis [14]) was 22.4 ± 0.58 mm, the “Diameter of inhibition zone” value [1] was 23.9 ± 0.37 mm and the “Diameter of inhibition zone” value (Pseudomonas aeruginosa [2]) was 18.2± 0.63 mm. The “Diameter of inhibition zone” value (Streptococcus gordonii [3]) was 20.3 ± 0.72 mm, the “Diameter of inhibition zone” value (Streptococcus mutans [4]) was 22.1± 0.72 mm and the MIC (Candida albicans [15]) was 7.81 µg/mL (≈ 17.9 µM). For the same compound, the “Minimum Inhibitory Concentration” value (Candida glabrata [16]) was 000.00 µg/mL, the MIC (Candida parapsilosis [17]) was 1.95 µg/mL (≈ 4.47 µM) and the “Minimum Inhibitory Concentration” value (Candida tropicalis [18]) was 000.49 µg/mL. The MIC (Candida tropicalis [18]; read-out: Minimum Inhibitory Concentration) was 0.49 µg/mL (≈ 1.12 µM), the “Minimum Inhibitory Concentration” value [5] was 000.24 µg/mL and the MIC [5] was 0.24 µg/mL (≈ 0.55 µM). It also gave an MIC (Pseudomonas aeruginosa [6]) of 15.6 µg/mL (≈ 35.8 µM), an MIC (Streptococcus gordonii [7]) of 3.9 µg/mL (≈ 8.93 µM) and an MIC (Streptococcus mutans [8]) of 0.98 µg/mL (≈ 2.24 µM). The “concentration giving total growth inhibition” value (Candida albicans [19]; C. albicans, in combination with Coe-comfort tissue conditioner) was 7.81 µg/mL, the “No. colony-forming units (CPU)” value (Candida albicans [19]; concentration 000.24 µg/ml) was 9.1 x 10^4 and the “No. colony-forming units (CPU)” value (Candida albicans [19]; concentration 000.49 µg/ml) was 5.2 x 10^4. The “No. colony-forming units (CPU)” value (Candida albicans [19]; concentration 000.98 µg/ml) was 6.3 x 10^3, the “No. colony-forming units (CPU)” value (Candida albicans [19]; concentration 001.95 µg/ml) was 1.0 x 10^3 and the “No. colony-forming units (CPU)” value (Candida albicans [19]; concentration 003.90 µg/ml) was 2.3 x 10^2. The “No. colony-forming units (CPU)” value (Candida albicans [19]; concentration 007.81 µg/ml) was 00.00, the “No. colony-forming units (CPU)” value (Candida albicans [19]; concentration 015.63 µg/ml) was 00.00 and the “No. colony-forming units (CPU)” value (Candida albicans [19]; concentration 031.25 µg/ml) was 00.00. The “No. colony-forming units (CPU)” value (Candida albicans [19]; concentration 062.50 µg/ml) was 00.00, the “concentration giving total growth inhibition” value [9] was 7.81 µg/mL and the “No. colony-forming units (CFU)” value ([9]; concentration 000.24 µg/ml) was 8.2 x 10^5. For the same compound, the “No. colony-forming units (CFU)” value ([9]; concentration 000.49 µg/ml) was 9.7 x 10^4, the “No. colony-forming units (CFU)” value ([9]; concentration 000.98 µg/ml) was 4.8 x 10^4 and the “No. colony-forming units (CFU)” value ([9]; concentration 001.95 µg/ml) was 3.4 x 10^3. For the same compound, the “No. colony-forming units (CFU)” value ([9]; concentration 003.90 µg/ml) was 4.1 x10^2, the “No. colony-forming units (CFU)” value ([9]; concentration 007.81 µg/ml) was 00.00 and the “No. colony-forming units (CFU)” value ([9]; concentration 015.63 µg/ml) was 00.00. The “No. colony-forming units (CFU)” value ([9]; concentration 031.25 µg/ml) was 00.00, the “No. colony-forming units (CFU)” value ([9]; concentration 062.50 µg/ml) was 00.00 and the “concentration giving total growth inhibition” value (Streptococcus gordonii [10]) was 62.50 µg/mL and 62.5 µg/mL. For the same compound, the “concentration giving total growth inhibition” value (S. mutans) was 125 µg/mL, the “effect on the activity of alanine aminotransferase (ALT)” value [20] was “did not show any significant effect” and the “effect on the activity of aspirate aminotransferase (AST)” value [20] was “did not show any significant effect”. For the same compound, the “effect on the levels of blood urea” value [20] was “did not show any significant effect” and the “effect on the levels of serum creatinine” value [20] was “did not show any significant effect”.
